Patent publication US7868204B2, “Inhibitors of histone deacetylase” (MethylGene Inc., priority 2001, dated 2011)
Where two headings read alike, the source gives them in different places.

Tests used:
[1] = test system: acetylated histone H-4 in T24 human bladder cancer cells; assay: Histone H4 acetylation in whole cells by immunoblots; assay type: cell-based; conditions: 16 h
Method in brief: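 Acetylated histone H4 was quantified by densitometry of ECL-developed immunoblots, probed with a polyclonal antibody, of […] total histone from T24 cultures exposed 16 h to HDAC inhibitors.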

[2] = biological target: T1, cloned recombinant human HDAC-1 (Homo sapiens, UniProt Q13547); assay: Human HDAC-1 enzyme inhibition, Assay 1 ([3H]-acetylated histone substrate, scintillation counting); assay type: biochemical
T1 construct: made in house; host or cells: Baculovirus insect cell expression system
Method in brief: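 Activity read as [3H]-acetic acid liberated from labeled substrate, ethyl acetate-extracted and scintillation-counted. Compounds preincubated 30 min at 4° C. with baculovirus-expressed, purified human HDAC-1. Dose-response curves give IC50 as concentration producing fifty percent of maximal inhibition.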

[3] = test system: HCT116 cells; assay: MTT assay; assay type: cell-based; conditions: Homo sapiens, HCT116 cells, 72 hours
Method in brief: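 Read-out: MTT (0.5 mg/ml final, 4 h) after solubilization in 50% DMF/20% SDS, pH 4.7, with OD translated into cell number via the line's growth curve. Compound treatment lasted 72 h at 37 °C in 5% CO2, starting a day after plating.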

[4] = T-24, Table 5F, read-out: H4 Ac (T24) EC50
[5] = Table 5F, read-out: Human HDAC-1 IC50
[6] = T-24, Table 5d, read-out: H4Ac(T24) EC50
[7] = Table 5d, read-out: HDAC-1 IC50
[8] = T-24, Table 5c, read-out: H4Ac (T24) EC50
[9] = Table 5c, read-out: Human HDAC-1 IC50
[10] = T-24, Table 5b, read-out: H4Ac (T24) EC50
[11] = Table 5b, read-out: Human HDAC-1 IC50
[12] = T-24, Table 5a, read-out: H4Ac (T24) EC50
[13] = Table 5a, read-out: Human HDAC-1 IC50

T1 sequence (Q13547 whole entry): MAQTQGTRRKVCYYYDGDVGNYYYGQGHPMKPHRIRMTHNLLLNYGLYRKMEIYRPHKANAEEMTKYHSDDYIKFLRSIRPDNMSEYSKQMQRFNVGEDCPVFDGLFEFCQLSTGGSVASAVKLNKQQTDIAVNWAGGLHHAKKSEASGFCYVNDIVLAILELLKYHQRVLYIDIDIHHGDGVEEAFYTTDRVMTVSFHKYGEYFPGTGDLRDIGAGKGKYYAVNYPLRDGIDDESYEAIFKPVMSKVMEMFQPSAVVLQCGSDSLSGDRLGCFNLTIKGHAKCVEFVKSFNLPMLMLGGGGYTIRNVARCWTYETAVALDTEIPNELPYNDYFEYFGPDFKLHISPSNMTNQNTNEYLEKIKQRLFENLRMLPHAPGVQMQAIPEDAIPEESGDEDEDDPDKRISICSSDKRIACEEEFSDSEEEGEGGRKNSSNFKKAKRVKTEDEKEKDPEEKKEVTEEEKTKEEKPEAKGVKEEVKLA

| EC50 [1, 4] [µM] | IC50 [2, 5] [µM] | IC50 ([3]; HCT-116, 72 h, Table 5F) [µM] | SMILES | other results |
| --- | --- | --- | --- | --- |
| 1 | 4 | 0.3 | Cn1c2ccc(NCc3ccc(C(=O)Nc4ccccc4N)cc3)cc2c2nc3ccccc3nc21 [Cpd 462] |  |
| 1 | 0.5 | 0.4 | CCn1c(=O)n(Cc2ccc(C(=O)Nc3ccccc3N)cc2)c(=O)c2ccccc21 [Cpd 181] |  |
| 5 | 2 | 0.7 | Nc1ccccc1NC(=O)c1ccc(COc2ccc3ccccc3n2)cc1 [Cpd 396, N-(2-Amino-phenyl)-4-(quinolin-2-yloxymethyl)-benzamide] |  |
| 1 | 3 | 0.3 | Nc1ccccc1NC(=O)c1ccc(CNc2nc3ccc(OCCN4CCOCC4)cc3s2)cc1 [Cpd 228] |  |
| 1 | 3 | 0.3 | Cc1sc2ncn(Cc3ccc(C(=O)Nc4ccccc4N)cc3)c(=O)c2c1C [compound 259, N-(2-Amino-phenyl)-4-(5,6-dimethyl-4-oxo-4H-thieno[2,3-d]pyrimidin-3-ylmethyl)-benzamide] |  |
| 5 | 0.4 | 1 | Nc1ccccc1NC(=O)c1ccc(CNc2nc(Cl)nc3[nH]cnc23)cc1 [Cpd 332, N-(2-Amino-phenyl)-4-[(2-chloro-9H-purin-6-ylamino)-methyl]-benzamide] |  |
|  |  |  | COc1cc(NC(C)c2ccc(/C=C/C(=O)Nc3ccccc3N)cc2)cc(OC)c1OC (stereo not drawn) [Cpd 518, N-(2-Amino-phenyl)-3-{4-[1-(3,4,5-trimethoxy-phenylamino)-ethyl]-phenyl}-acrylamide] | EC50 [1, 6]: 5 µM; IC50 [2, 7]: 4 µM; IC50 ([3]; HCT-116, Table 5d): 2 µM |
| 1 | 3 | 2 | Nc1ccccc1NC(=O)c1ccc(-c2ccc(CNCc3ccccn3)s2)cc1 [Cpd 466] |  |
| 3 | 2 | 2 | COc1cc(CNc2ccc3sc(C(=O)Nc4ccccc4N)cc3c2)cc(OC)c1OC [compound 590, 5-(3,4,5-Trimethoxy-benzylamino)-benzo[b]thiophene-2-carboxylic acid (2-amino-phenyl)-amide] |  |
| 15 | 2 | 0.6 | Nc1ccccc1NC(=O)c1ccc(CSc2nccc(C(F)(F)F)n2)cc1 [Cpd 379, N-(2-Amino-phenyl)-4-(4-trifluoromethyl-pyrimidin-2-ylsulfanylmethyl)-benzamide] |  |
| 3 | 3 | 1 | Nc1ccccc1NC(=O)c1ccc(CNc2ccc(F)cc2)cc1 [Cpd 415, N-(2-Amino-phenyl)-4-[(4-fluoro-phenylamino)-methyl]-benzamide] |  |
| 5 | 3 | 2 | Cc1cc(C)nc(OCc2ccc(C(=O)Nc3ccccc3N)cc2)n1 [Cpd 384, N-(2-Amino-phenyl)-4-(4,6-dimethyl-pyrimidin-2-yloxymethyl)-benzamide] |  |
| 2 | 0.7 | 0.4 | Nc1ccccc1NC(=O)c1ccc(CNc2nc3cc(Br)ccc3s2)cc1 [Cpd 322, N-(2-Amino-phenyl)-4-[(5-bromo-benzothiazol-2-ylamino)-methyl]-benzamide] |  |
| 1 | 3 | 1 | Nc1ccccc1NC(=O)c1ccc(NCCNc2ccccc2)nc1 [Cpd 460, N-(2-Amino-phenyl)-6-(2-phenylamino-ethylamino)-nicotinamide] |  |
| 1 | 3 | 0.4 | COc1ccc(-c2cc(Cl)nc(NCc3ccc(C(=O)Nc4ccccc4N)cc3)n2)cc1OC [Cpd 439] |  |
|  |  |  | COc1cc(OC)nc(NCc2ccc(C(=O)Nc3ccccc3N)cc2)n1 [Cpd 169] | EC50 ([1]; T-24, Table 5E, read-out: H4 Ac (T24) EC50): 1 µM; IC50 ([2]; Table 5E, read-out: Human HDAC-1 IC50): 0.3 µM; IC50 ([3]; HCT-116, 72 h, Table 5E): 0.7 µM |
|  |  |  | Nc1ccccc1NC(=O)/C=C/c1ccc(CNC(=O)OCc2cccnc2)cc1 [Cpd 104] | EC50 [1, 8]: 5 µM; IC50 [2, 9]: 10 µM; IC50 ([3]; HCT-116, 72 h, Table 5c): 9 µM |
| 2 | 2 | 2 | Nc1ccccc1NC(=O)c1ccc(-c2cccc(CNC3Cc4ccccc4C3)c2)cc1 [Cpd 186] |  |
| 1 | 3 | 0.6 | Nc1ccccc1NC(=O)c1ccc(CNc2nccc(N3CCOCC3)n2)cc1 [Cpd 435, N-(2-Amino-phenyl)-4-[(4-morpholin-4-yl-pyrimidin-2-ylamino)-methyl]-benzamide] |  |

| EC50 [1, 4] [µM] | IC50 [2, 5] [µM] | IC50 ([3]; HCT-116, 72 h, Table 5F) [µM] | SMILES | other results |
| --- | --- | --- | --- | --- |
| 3 | 1 | 0.3 | Nc1ccccc1NC(=O)c1ccc(CN2C(=O)CSc3ccccc32)cc1 [Cpd 363, N-(2-Amino-phenyl)-4-(3-oxo-2,3-dihydro-benzo[1,4]thiazin-4-ylmethyl)-benzamide] |  |
| 4 | 1 | 0.6 | COc1cc(NCc2ccc(C(=O)Nc3ccccc3N)cc2)cc(OC)c1 [Cpd 397, N-(2-Amino-phenyl)-4-[(3,5-dimethoxy-phenylamino)-methyl]-benzamide] |  |
| 1 | 5 | 0.7 | COc1cccc(NCc2ccc(C(=O)Nc3ccccc3N)cc2)c1 [Cpd 430, N-(2-Amino-phenyl)-4-[(3-methoxy-phenylamino)-methyl]-benzamide] |  |
| 5 | 3 | 2 | CCC1(C)CC(=O)N(Cc2ccc(C(=O)Nc3ccccc3N)cc2)C(=O)C1 [Cpd 180] |  |
| 5 | 2 | 0.8 | COc1cccc(NCc2ccc(C(=O)Nc3ccccc3N)cc2)n1 [Cpd 390, N-(2-Amino-phenyl)-4-[(6-methoxy-pyridin-2-ylamino)-methyl]-benzamide] |  |
|  |  |  | COc1cc(N(Cc2ccc(/C=C/C(=O)Nc3ccccc3N)cc2)Cc2cc3ccccc3[nH]2)cc(OC)c1OC [Cpd 499, N-(2-Amino-phenyl)-3-{4-([(1 H-indol-2-ylmethyl)-(3,4,5-trimethoxy-phenyl)-amino]-methyl}-phenyl)-acrylamide] | EC50 [1, 6]: > 25 µM; IC50 [2, 7]: > 25 µM; IC50 ([3]; HCT-116, Table 5d): 2 µM |
| 2 | 3 | 1 | COc1cc(NCc2ccc(C(=O)Nc3ccccc3N)cc2)ncn1 [Cpd 385] |  |
|  |  |  | Nc1ccccc1NC(=O)c1ccc(CNc2nc(NCC3CC3)nc(NC3Cc4ccccc4C3)n2)cc1 [Cpd 472] | EC50 [1, 10]: 1 µM; IC50 [2, 11]: 3 µM; IC50 ([3]; HCT-116, 72 h, Table 5b): 1 µM |
| 3 | 2 | 5 | Nc1ccccc1NC(=O)c1ccc(CSc2ncc[nH]2)cc1 [Cpd 327, N-(2-Amino-phenyl)-4-(1H-imidazol-2-ylsulfanylmethyl)-benzamide] |  |
| 2 | 8 | 0.3 | Nc1ccccc1NC(=O)c1ccc(CNc2ccc3c(c2)OCCO3)cc1 [Cpd 400, N-(2-Amino-phenyl)-4-[(2,3-dihydro-benzo[1,4]dioxin-6-ylamino)-methyl]-benzamide] |  |
|  |  |  | COc1cc(/C=C\c2ccc(/C=C/C(=O)Nc3ccccc3N)cc2)cc(OC)c1OC [Cpd 537, N-(2-Amino-phenyl)-3-{4-[2-(3,4,5-trimethoxy-phenyl)-vinyl]-phenyl}-acrylamide] | EC50 [1, 6]: > 25 µM; IC50 [2, 7]: 11 µM; IC50 ([3]; HCT-116, Table 5d): 2 µM |
|  |  |  | Nc1nc(NCc2ccc(C(=O)Nc3ccccc3N)cc2)nc(N2Cc3ccccc3C2)n1 [Cpd 28] | EC50 [1, 12]: 1 µM; IC50 [2, 13]: 2 µM; IC50 ([3]; HCT-116, 72 h, Table 5a): 0.5 µM |
| 2 | 2 | 0.5 | Cc1ccc(C#N)c(OCc2ccc(C(=O)Nc3ccccc3N)cc2)n1 [Cpd 577, N-(2-Amino-phenyl)-4-(3-cyano-6-methyl-pyridin-2-yloxymethyl)-benzamide] |  |
|  |  |  | Nc1ccccc1NC(=O)/C=C/c1ccc(NC(=O)OCc2cccnc2)cc1 [Cpd 55b] | EC50 [1, 8]: 3 µM; IC50 [2, 9]: 3 µM; IC50 ([3]; HCT-116, 72 h, Table 5c): 8 µM |
|  |  |  | Nc1nc(NCc2ccc(C(=O)Nc3ccccc3N)cc2)nc(NCc2ccccn2)n1 [Cpd 12] | EC50 [1, 12]: 5 µM; IC50 [2, 13]: 2 µM; IC50 ([3]; HCT-116, 72 h, Table 5a): 2 µM |
| 1 | 3 | 1 | Nc1ccccc1NC(=O)c1ccc(CNc2cccc(F)c2)cc1 [Cpd 417, N-(2-Amino-phenyl)-4-[(3-fluoro-phenylamino)-methyl]-benzamide] |  |
| 5 | 5 | 1 | COc1ccc(NCc2ccc(C(=O)Nc3ccccc3N)cc2)cc1OCc1cccnc1 [Cpd 405] |  |
|  |  |  | Nc1nc(NC2Cc3ccccc3C2)nc(OCc2ccc(C(=O)Nc3ccccc3N)cc2)n1 [Cpd 207] | EC50 [1, 10]: 2 µM; IC50 [2, 11]: 0.4 µM; IC50 ([3]; HCT-116, 72 h, Table 5b): 0.6 µM |
|  |  |  | Nc1nc(NCCc2ccccc2)nc(NCc2ccc(C(=O)Nc3ccccc3N)cc2)n1 [Cpd 20, 4-[(4-Amino-6-phenethylamino-[1,3,5]triazin-2-ylamino)-methyl]-N-(2-amino-phenyl)-benzamide] | EC50 [1, 12]: 1 µM; IC50 [2, 13]: 0.5 µM; IC50 ([3]; HCT-116, 72 h, Table 5a): 0.3 µM |
